PMC5058653, “A Fhit-mimetic peptide suppresses annexin A4-mediated chemoresistance to paclitaxel in lung cancer cells” (Oncotarget, 2016)
No end group written: not given here.

Assays:
A549 cells = test: A549 tumor xenograft in nude mice, tumor weight; format: in vivo, mouse; details: s.c. A549 xenograft, paclitaxel alone 40 mg/kg single i.v. dose, 48 h, n = 5 mice per group
Description: We further investigated the in vivo effects of Tat-Fhit 7-13 peptide with or without paclitaxel treatment in a preclinical model of lung cancer, using six groups of mice (n = 5 mice per group). Each group was subcutaneously injected with 1×10^7 A549 cells. When tumors reached the diameter of 15 mm, three groups were treated either with a single administration of 40 mg/kg paclitaxel, or 50 mg/kg Tat-Fhit 7-13 peptide, or both; mice were monitored on a regular basis. The remaining three groups, used as controls, were either left untreated or treated with Tat-Fhit 7-13 scrambled or treated with Tat-Fhit 7-13 scrambled plus paclitaxel; 48 h after treatments, mice were sacrificed and tumors were evaluated by weight.
Figure 3 Tat-Fhit 7-13 peptide in combination with paclitaxel blocks in vivo tumor formation A., C. Nude mice were subcutaneously injected with […] A549 cells. When tumors reached 15 mm diameter, mice were mock-treated, treated paclitaxel (single IV administration of 40 mg/kg), with scrambled Tat peptide (50 mg/kg) alone or in combination with paclitaxel, with Tat-Fhit 7-13 peptide (50 mg/Kg) alone or in combination with paclitaxel; paclitaxel and peptides were injected in a single administration and mice were monitored on a regular basis. Two days later, mice were sacrificed and tumors were evaluated by percent A. and by weight C.. […]

[1] = culture medium over adherent cells, 24 h after administration, read-out MALDI mass spectrometry
Text: We tested the stability of our peptides in the culture medium over adherent cells through Mass Spectroemtry-MALDI.

Annexin A4 = biological target: T1, Annexin A4 (Homo sapiens, UniProt P09525); test: GST pull-down from A549 total lysates, immunoblot for Annexin 4; format: binding; details: GSH resin beads, 12 h at 4°C
T1 construct: endogenous in cells; host or cells: A549 total lysates
T1 sequence (P09525 1-319): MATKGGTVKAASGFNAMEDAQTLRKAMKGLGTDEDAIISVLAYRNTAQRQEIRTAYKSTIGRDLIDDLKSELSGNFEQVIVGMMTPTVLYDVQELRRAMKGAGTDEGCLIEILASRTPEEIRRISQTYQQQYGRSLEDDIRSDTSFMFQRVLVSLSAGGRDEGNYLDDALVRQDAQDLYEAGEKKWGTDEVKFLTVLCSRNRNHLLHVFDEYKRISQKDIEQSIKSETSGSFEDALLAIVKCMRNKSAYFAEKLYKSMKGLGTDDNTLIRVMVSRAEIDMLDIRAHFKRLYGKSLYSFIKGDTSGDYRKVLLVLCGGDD
Text: In order to map the region of Fhit protein binding Annexin A4, we cloned downstream GST three truncated FHIT cDNAs, namely TR1 (332 bp), TR2 (212 bp) and TR3 (113 bp), all containing the N-terminus common to the wild-type Fhit protein. TR1, TR2, and TR3 correspond to the 111, 71, and 38 N-terminal aminoacids of Fhit protein, respectively (Figure 1A). Annexin A4 binds wild-type Fhit/GST fusion protein as well as all shorter forms of Fhit fusion proteins, indicating its binding to the N-terminus of Fhit (Figure 1B). In our previous paper, we reported that Fhit/Annexin A4 interaction was only detectable in the presence of DSP [19]. DSP is a cross-linker containing an amine-reactive N-hydroxysuccinimide (NHS); NHS esters react with primary amine group located at lysine (Lys, K) residue sidechain. Since Lys residues are abundant and easily accessible on the hydrophilic surface of most proteins they usually crosslink with high efficiency.
Figure 1 Fhit peptide interacts with Annexin 4 A. GST-Fhit fusion protein and three deletion mutant proteins. Fhit was deleted from the C-terminal site. B. GST-FHIT plasmids were amplified in BL21 bacteria by stimulation with IPTG […] for 6 h at 30°C. Recombinant GST-Fhit fusion proteins were purified with GSH resin beads and added to A549 total lysates. 12 h after incubation at 4°C, GSH resin beads were washed and proteins eluted. […]

| Compound | stability in the culture medium [1] | also measured |
| --- | --- | --- |
| CC(=O)O[C@H]1C(=O)[C@@]2(C)[C@H]([C@H](OC(=O)c3ccccc3)[C@]3(O)C[C@H](OC(=O)[C@H](O)[C@@H](NC(=O)c4ccccc4)c4ccccc4)C(C)=C1C3(C)C)[C@]1(OC(C)=O)CO[C@@H]1C[C@@H]2O [paclitaxel] |  | tumor wt, % of controls (A549 cells): 60% |
| YGRKKRRQRRRGLSKQPHI [Tat-Fhit 7-13 scrambled peptide] | still stable and undegraded |  |
| YGRKKRRQRRRGQHLIKPS [Tat-Fhit 7-13 peptide] | still stable and undegraded |  |
| wild-type Fhit/GST fusion protein: recombinant full-length Fhit fused to GST, expressed in E. coli BL21 |  | binding of Annexin A4 (GST pull-down) (Annexin A4): binds |
